# Measurements taken from US8877748B2, “Heterocyclic fused anthraquinone derivatives, manufacturing method and pharmaceutical composition using thereof” (National Defense Medical Center, priority 2012, dated 2014).
# Tests used:
# [1] = system: HT29; test: NCI one-dose screening, colon cancer HT29; type: cell-based, human; details: 10 μM
# [2] = system: NCI-H226; test: NCI one-dose screening, non-small cell lung cancer NCI-H226; type: cell-based, human; details: 10 μM
# [3] = system: EKVX; test: NCI one-dose screening, non-small cell lung cancer EKVX; type: cell-based, human; details: 10 μM
# [4] = system: OVCAR-4; test: NCI one-dose screening, ovarian cancer OVCAR-4; type: cell-based, human; details: 10 μM
# [5] = system: SF-268; test: NCI one-dose screening, CNS cancer SF-268; type: cell-based, human; details: 10 μM
# [6] = system: SF-539; test: NCI one-dose screening, CNS cancer SF-539; type: cell-based, human; details: 10 μM
# [7] = system: M14; test: NCI one-dose screening, melanoma M14; type: cell-based, human; details: 10 μM
# [8] = system: 786-O; test: NCI one-dose screening, renal cancer 786-O; type: cell-based, human; details: 10 μM
# [9] = system: HOP-62; test: NCI one-dose screening, non-small cell lung cancer HOP-62; type: cell-based, human; details: 10 μM
# [10] = system: PC-3 prostate cancer cell line; test: SRB assay cell viability, PC-3 prostate cancer cell line; type: cell-based, human; details: Homo sapiens, PC-3 prostate cancer cell line, Table II prints no unit, μM printed, read-out: SRB assay: 50% inhibition of cancer cell proliferation of sample concentration (IC50) of PC-3 prostate cancer cell line
# [11] = system: CCRF-CEM; test: NCI screening platform one-dose single concentration screening, leukemia CCRF-CEM; type: cell-based, human; details: 10 μM
# [12] = system: CAKI-1; test: NCI one-dose screening, renal cancer CAKI-1; type: cell-based, human; details: 10 μM
# [13] = system: SK-MEL-28; test: NCI one-dose screening, melanoma SK-MEL-28; type: cell-based, human; details: 10 μM
# [14] = system: ACHN; test: NCI one-dose screening, renal cancer ACHN; type: cell-based, human; details: 10 μM
# [15] = system: RXF, 393; test: NCI one-dose screening, renal cancer RXF, 393; type: cell-based, human; details: 10 μM
# [16] = system: UACC-257; test: NCI one-dose screening, melanoma UACC-257; type: cell-based, human; details: 10 μM
# [17] = system: UACC-62; test: NCI one-dose screening, melanoma UACC-62; type: cell-based, human; details: 10 μM
# [18] = system: SK-MEL-2; test: NCI one-dose screening, melanoma SK-MEL-2; type: cell-based, human; details: 10 μM
# [19] = system: HCT-15; test: NCI one-dose screening, colon cancer HCT-15; type: cell-based, human; details: 10 μM
# [20] = system: NCI-H23; test: NCI one-dose screening, non-small cell lung cancer NCI-H23; type: cell-based, human; details: 10 μM
# [21] = system: OVCAR-3; test: NCI one-dose screening, ovarian cancer OVCAR-3; type: cell-based, human; details: 10 μM
# [22] = system: COLO 205; test: NCI one-dose screening, colon cancer COLO 205; type: cell-based, human; details: 10 μM
# [23] = system: SR; test: NCI one-dose screening, leukemia SR; type: cell-based, human; details: 10 μM
# [24] = system: PRMI-8226 cell line; test: NCI one-dose screening, leukemia PRMI-8226; type: cell-based, human; details: 10 μM
# [25] = system: NCI-H460; test: NCI one-dose screening, non-small cell lung cancer NCI-H460; type: cell-based, human; details: 10 μM
# [26] = system: NCI-H322M; test: NCI one-dose screening, non-small cell lung cancer NCI-H322M; type: cell-based, human; details: 10 μM; Non-small cell lung cancer
# [27] = system: SNB-75; test: NCI one-dose screening, CNS cancer SNB-75; type: cell-based, human; details: 10 μM
# [28] = system: KM12; test: NCI one-dose screening, colon cancer KM12; type: cell-based, human; details: 10 μM
# [29] = system: SK-MEL-5; test: NCI one-dose screening, melanoma SK-MEL-5; type: cell-based, human; details: 10 μM
# [30] = system: SNB-19; test: NCI one-dose screening, CNS cancer SNB-19; type: cell-based, human; details: 10 μM
# [31] = system: NCI-H522; test: NCI one-dose screening, non-small cell lung cancer NCI-H522; type: cell-based, human; details: 10 μM
# [32] = system: LOX IMVI; test: NCI one-dose screening, melanoma LOX IMVI; type: cell-based, human; details: 10 μM
# [33] = system: MALME-3M; test: NCI one-dose screening, melanoma MALME-3M; type: cell-based, human; details: 10 μM
# [34] = system: SF-295; test: NCI one-dose screening, CNS cancer SF-295; type: cell-based, human; details: 10 μM
# [35] = system: HCT-116; test: NCI one-dose screening, colon cancer HCT-116; type: cell-based, human; details: 10 μM
# [36] = system: OVCAR-5; test: NCI one-dose screening, ovarian cancer OVCAR-5; type: cell-based, human; details: 10 μM
# [37] = system: K562cell line; test: NCI one-dose screening, leukemia K562; type: cell-based, human; details: 10 μM
# [38] = system: IGROV1; test: NCI one-dose screening, ovarian cancer IGROV1; type: cell-based, human; details: 10 μM
# [39] = system: SN12C; test: NCI one-dose screening, renal cancer SN12C; type: cell-based, human; details: 10 μM
# [40] = system: HCC-2998; test: NCI one-dose screening, colon cancer HCC-2998; type: cell-based, human; details: 10 μM
# [41] = system: NCl/ADR-RES; test: NCI one-dose screening, breast cancer NCl/ADR-RES; type: cell-based, human; details: 10 μM; listed under Ovarian cancer
# [42] = system: HL-60, TB; test: NCI one-dose screening, leukemia HL-60, TB; type: cell-based, human; details: 10 μM
# [43] = system: U251; test: NCI one-dose screening, CNS cancer U251; type: cell-based, human; details: 10 μM
# [44] = system: A549/ATCC; test: NCI one-dose screening, non-small cell lung cancer A549/ATCC; type: cell-based, human; details: 10 μM
# [45] = system: MOLT-4; test: NCI one-dose screening, leukemia MOLT-4; type: cell-based, human; details: 10 μM
# [46] = system: OVCAR-8; test: NCI one-dose screening, ovarian cancer OVCAR-8; type: cell-based, human; details: 10 μM
# [47] = system: TK-10; test: NCI one-dose screening, renal cancer TK-10; type: cell-based, human; details: 10 μM
smiles,measurement,setting,value
"Cc1ccccc1Nc1cc2c(c3nsnc13)C(=O)c1ccccc1C2=O [C61, 4-(o-tolylamino)anthra[2,1-c][1,2,5] thiadiazol-6,11-dione]",Growth Percent HT29,[1],52.64%
same,Growth Percent NCI-H226,[2],47.00%
same,Growth Percent EKVX,[3],62.56%
same,Growth Percent OVCAR-4,[4],−5.69%
same,Growth Percent SF-268,[5],39.57%
same,Growth Percent SF-539,[6],47.90%
same,Growth Percent M14,[7],61.89%
same,Growth Percent 786-0,[8],63.62%
same,Growth Percent HOP-62,[9],40.78%
same,IC50,[10],0.21 µM
same,Growth Percent CCRF-CEM,[11],17.83%
same,Growth Percent CAKI-1,[12],27.55%
same,melting point,,177 to 178 °C
same,Growth Percent SK-MEL-28,[13],53.13%
same,Growth Percent ACHN,[14],38.07%
same,Growth Percent RXF 393,[15],45.35%
same,Growth Percent UACC-257,[16],33.79%
same,Growth Percent UACC-62,[17],57.68%
same,Growth Percent SK-MEL-2,[18],32.64%
same,Growth Percent HCT-15,[19],28.74%
same,Growth Percent NCI-H23,[20],37.57%
same,Growth Percent OVCAR-3,[21],22.37%
same,Growth Percent COLO 205,[22],83.39%
same,Growth Percent SR,[23],−15.27%
same,Growth Percent RPMI-8226,[24],16.20%
same,Growth Percent NCI-H460,[25],11.85%
same,Growth Percent NCI-H322M,[26],64.54%
same,Growth Percent SNB-75,[27],43.18%
same,Growth Percent KM12,[28],40.14%
same,Growth Percent SK-MEL-5,[29],8.03%
same,Growth Percent SNB-19,[30],61.89%
same,Growth Percent NCI-H522,[31],12.41%
same,Growth Percent LOX IMVI,[32],8.17%
same,Growth Percent MALME-3M,[33],64.72%
same,Growth Percent SF-295,[34],34.71%
same,Growth Percent HCT-116,[35],24.23%
same,Growth Percent OVCAR-5,[36],79.06%
same,Growth Percent K562,[37],16.97%
same,Growth Percent IGROV1,[38],25.29%
same,Growth Percent SN12C,[39],46.94%
same,Growth Percent HCC-2998,[40],57.61%
same,Growth Percent NCI/ADR-RES,[41],28.36%
same,Growth Percent HL-60(TB),[42],1.11%
same,Growth Percent U251,[43],19.18%
same,Growth Percent A549/ATCC,[44],27.13%
same,Growth Percent MOLT-4,[45],−11.92%
same,Growth Percent OVCAR-8,[46],22.87%
same,Growth Percent TK-10,[47],63.75%
